{"source": "patent US6613718B2", "about": "“Aryl ether derivatives and processes for their preparation and herbicidal and desiccant compositions containing them” (Ishihara Sangyo Kaisha, Ltd., priority 2001, dated 2003)", "format_in_all_cases": "in vivo", "key": {"[1]": {"system": "field corn (Zea mays L., var. Dekalb 535, CORN)", "assay": "Post-emerge greenhouse screening, crop safety / corn selectivity (phytotoxicity rating)", "settings": "14 days after application", "outline": "(§1)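 Compounds in acetone track-sprayed at 15–1000 g ai/ha, 187 l/ha, onto sandy loam pots sown one day before (pre-emerge) or on 2-3 leaf plants (post-emerge, plus 0.25% v/v non-ionic surfactant). Phytotoxicity rated at 14 days, 0 (no damage) to 100 (all plants dead).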"}, "[2]": {"system": "large crabgrass (Digitaria sanguinalis, DIGSA)", "assay": "Post-emerge greenhouse herbicide activity screening, phytotoxicity rating", "settings": "14 days after application", "outline": "as §1"}, "[3]": {"system": "barnyardgrass (Echinochloa crus-galli, ECHCG)", "assay": "Post-emerge greenhouse herbicide activity screening, phytotoxicity rating", "settings": "14 days after application", "outline": "as §1"}, "[4]": {"system": "common ragweed (Ambrosia artemisiifolia L., AMBEL)", "assay": "Post-emerge greenhouse herbicide activity screening, phytotoxicity rating", "outline": "as §1"}, "[5]": {"system": "green foxtail (Setaria viridis, SETVI)", "assay": "Post-emerge greenhouse herbicide activity screening, phytotoxicity rating", "outline": "as §1"}, "[6]": {"system": "velvetleaf (Abutilon theophrasti, ABUTH)", "assay": "Post-emerge greenhouse herbicide activity screening, phytotoxicity rating", "settings": "14 days after application", "outline": "as §1"}, "[7]": {"system": "redroot pigweed (Amaranthus retroflexus, AMARE)", "assay": "Post-emerge greenhouse herbicide activity screening, phytotoxicity rating", "outline": "as §1"}, "[8]": {"system": "sicklepod (Cassia obtusifolia, CASOB)", "assay": "Post-emerge greenhouse herbicide activity screening, phytotoxicity rating", "outline": "as §1"}, "[9]": {"system": "ivyleaf morningglory (Ipomoea hederacea, IPOHE)", "assay": "Post-emerge greenhouse herbicide activity screening, phytotoxicity rating", "settings": "14 days after application", "outline": "as §1"}, "[10]": {"system": "johnsongrass (Sorghum halepense, SORHA)", "assay": "Post-emerge greenhouse herbicide activity screening, phytotoxicity rating", "settings": "14 days after application", "outline": "as §1"}, "[11]": {"system": "lambsquarters (Chenopodium album, CHEAL)", "assay": "Post-emerge greenhouse herbicide activity screening, phytotoxicity rating", "outline": "as §1"}, "[12]": {"system": "field corn (Zea mays L., var. Dekalb 535, CORN)", "assay": "Pre-emerge greenhouse screening, crop safety (phytotoxicity rating)", "settings": "14 days after application", "outline": "as §1"}, "[13]": {"system": "upland rice (Oryza sp., var.Tebonnet, RICE)", "assay": "Pre-emerge greenhouse screening, crop safety (phytotoxicity rating)", "settings": "14 days after application", "outline": "as §1"}, "[14]": {"system": "soybean (Glycine max L., var. Pella 86, SOY)", "assay": "Pre-emerge greenhouse screening, crop safety (phytotoxicity rating)", "settings": "14 days after application", "outline": "as §1"}, "[15]": {"system": "large crabgrass (Digitaria sanguinalis, DIGSA)", "assay": "Pre-emerge greenhouse herbicide activity screening, phytotoxicity rating", "settings": "14 days after application", "outline": "as §1"}, "[16]": {"system": "barnyardgrass (Echinochloa crus-galli, ECHCG)", "assay": "Pre-emerge greenhouse herbicide activity screening, phytotoxicity rating", "settings": "14 days after application", "outline": "as §1"}, "[17]": {"system": "common ragweed (Ambrosia artemisiifolia L., AMBEL)", "assay": "Pre-emerge greenhouse herbicide activity screening, phytotoxicity rating", "settings": "14 days after application", "outline": "as §1"}, "[18]": {"system": "green foxtail (Setaria viridis, SETVI)", "assay": "Pre-emerge greenhouse herbicide activity screening, phytotoxicity rating", "settings": "14 days after application", "outline": "as §1"}, "[19]": {"system": "velvetleaf (Abutilon theophrasti, ABUTH)", "assay": "Pre-emerge greenhouse herbicide activity screening, phytotoxicity rating", "settings": "14 days after application", "outline": "as §1"}, "[20]": {"system": "redroot pigweed (Amaranthus retroflexus, AMARE)", "assay": "Pre-emerge greenhouse herbicide activity screening, phytotoxicity rating", "settings": "14 days after application", "outline": "as §1"}, "[21]": {"system": "sicklepod (Cassia obtusifolia, CASOB)", "assay": "Pre-emerge greenhouse herbicide activity screening, phytotoxicity rating", "settings": "14 days after application", "outline": "as §1"}, "[22]": {"system": "ivyleaf morningglory (Ipomoea hederacea, IPOHE)", "assay": "Pre-emerge greenhouse herbicide activity screening, phytotoxicity rating", "settings": "14 days after application", "outline": "as §1"}, "[23]": {"system": "johnsongrass (Sorghum halepense, SORHA)", "assay": "Pre-emerge greenhouse herbicide activity screening, phytotoxicity rating", "settings": "14 days after application", "outline": "as §1"}, "[24]": {"system": "lambsquarters (Chenopodium album, CHEAL)", "assay": "Pre-emerge greenhouse herbicide activity screening, phytotoxicity rating", "settings": "14 days after application", "outline": "as §1"}, "[25]": {"system": "upland rice (Oryza sp., var.Tebonnet, RICE)", "assay": "Post-emerge greenhouse screening, crop safety (phytotoxicity rating)", "settings": "14 days after application", "outline": "as §1"}, "[26]": {"system": "soybean (Glycine max L., var. Pella 86, SOY)", "assay": "Post-emerge greenhouse screening, crop safety (phytotoxicity rating)", "settings": "14 days after application", "outline": "as §1"}, "[27]": {"settings": "125 g ai/ha, 14 days after application"}, "[28]": {"settings": "250 g ai/ha, 14 days after application"}}}
{"smiles": "Cn1c(C(F)(F)F)cc(=O)n(-c2cc(Oc3ccccc3[N+](=O)[O-])c(Cl)cc2F)c1=S", "note": "[Compound 1-49]", "values": [{"measurement": "CORN crop damage, phytotoxicity rating (0-100 scale)", "setting": "[1]; 125 g ai/ha", "result": 0}, {"measurement": "CORN crop damage, phytotoxicity rating (0-100 scale)", "setting": "[1]; 250 g ai/ha", "result": 0}, {"measurement": "DIGSA phytotoxicity rating (0-100 scale)", "setting": "[2]; 125 g ai/ha", "result": 0}, {"measurement": "DIGSA phytotoxicity rating (0-100 scale)", "setting": "[2]; 250 g ai/ha", "result": 0}, {"measurement": "ECHCG phytotoxicity rating (0-100 scale)", "setting": "[3]; 125 g ai/ha", "result": 0}, {"measurement": "ECHCG phytotoxicity rating (0-100 scale)", "setting": "[3]; 250 g ai/ha", "result": 0}, {"measurement": "AMBEL phytotoxicity rating (0-100 scale)", "setting": "[4]; 31.3 g ai/ha", "result": 65}, {"measurement": "AMBEL phytotoxicity rating (0-100 scale)", "setting": "[4]; 62.5 g ai/ha", "result": 65}, {"measurement": "AMBEL phytotoxicity rating (0-100 scale)", "setting": "[4]; [27]", "result": 70}, {"measurement": "AMBEL phytotoxicity rating (0-100 scale)", "setting": "[4]; [28]", "result": 70}, {"measurement": "SETVI phytotoxicity rating (0-100 scale)", "setting": "[5]; 31.3 g ai/ha", "result": 0}, {"measurement": "SETVI phytotoxicity rating (0-100 scale)", "setting": "[5]; 62.5 g ai/ha", "result": 0}, {"measurement": "SETVI phytotoxicity rating (0-100 scale)", "setting": "[5]; [27]", "result": 0}, {"measurement": "SETVI phytotoxicity rating (0-100 scale)", "setting": "[5]; [28]", "result": 0}, {"measurement": "ABUTH phytotoxicity rating (0-100 scale)", "setting": "[6]; 125 g ai/ha", "result": 98}, {"measurement": "ABUTH phytotoxicity rating (0-100 scale)", "setting": "[6]; 250 g ai/ha", "result": 100}, {"measurement": "AMARE phytotoxicity rating (0-100 scale)", "setting": "[7]; 31.3 g ai/ha", "result": 98}, {"measurement": "AMARE phytotoxicity rating (0-100 scale)", "setting": "[7]; 62.5 g ai/ha", "result": 98}, {"measurement": "AMARE phytotoxicity rating (0-100 scale)", "setting": "[7]; [27]", "result": 99}, {"measurement": "AMARE phytotoxicity rating (0-100 scale)", "setting": "[7]; [28]", "result": 100}, {"measurement": "CASOB phytotoxicity rating (0-100 scale)", "setting": "[8]; 31.3 g ai/ha", "result": 60}, {"measurement": "CASOB phytotoxicity rating (0-100 scale)", "setting": "[8]; 62.5 g ai/ha", "result": 70}, {"measurement": "CASOB phytotoxicity rating (0-100 scale)", "setting": "[8]; [27]", "result": 75}, {"measurement": "CASOB phytotoxicity rating (0-100 scale)", "setting": "[8]; [28]", "result": 75}, {"measurement": "IPOHE phytotoxicity rating (0-100 scale)", "setting": "[9]; 125 g ai/ha", "result": 80}, {"measurement": "IPOHE phytotoxicity rating (0-100 scale)", "setting": "[9]; 250 g ai/ha", "result": 80}, {"measurement": "SORHA phytotoxicity rating (0-100 scale)", "setting": "[10]; 125 g ai/ha", "result": 0}, {"measurement": "SORHA phytotoxicity rating (0-100 scale)", "setting": "[10]; 250 g ai/ha", "result": 0}, {"measurement": "CHEAL phytotoxicity rating (0-100 scale)", "setting": "[11]; 31.3 g ai/ha", "result": 98}, {"measurement": "CHEAL phytotoxicity rating (0-100 scale)", "setting": "[11]; 62.5 g ai/ha", "result": 98}, {"measurement": "CHEAL phytotoxicity rating (0-100 scale)", "setting": "[11]; [27]", "result": 99}, {"measurement": "CHEAL phytotoxicity rating (0-100 scale)", "setting": "[11]; [28]", "result": 100}, {"measurement": "CORN crop damage, phytotoxicity rating (0-100 scale)", "setting": "[12]; 125 g ai/ha", "result": 0}, {"measurement": "CORN crop damage, phytotoxicity rating (0-100 scale)", "setting": "[12]; 250 g ai/ha", "result": 0}, {"measurement": "RICE crop damage, phytotoxicity rating (0-100 scale)", "setting": "[13]; 125 g ai/ha", "result": 30}, {"measurement": "RICE crop damage, phytotoxicity rating (0-100 scale)", "setting": "[13]; 250 g ai/ha", "result": 35}, {"measurement": "SOY crop damage, phytotoxicity rating (0-100 scale)", "setting": "[14]; 125 g ai/ha", "result": 0}, {"measurement": "SOY crop damage, phytotoxicity rating (0-100 scale)", "setting": "[14]; 250 g ai/ha", "result": 0}, {"measurement": "DIGSA phytotoxicity rating (0-100 scale)", "setting": "[15]; 125 g ai/ha", "result": 95}, {"measurement": "DIGSA phytotoxicity rating (0-100 scale)", "setting": "[15]; 250 g ai/ha", "result": 99}, {"measurement": "ECHCG phytotoxicity rating (0-100 scale)", "setting": "[16]; 125 g ai/ha", "result": 45}, {"measurement": "ECHCG phytotoxicity rating (0-100 scale)", "setting": "[16]; 250 g ai/ha", "result": 98}, {"measurement": "AMBEL phytotoxicity rating (0-100 scale)", "setting": "[17]; 125 g ai/ha", "result": 70}, {"measurement": "AMBEL phytotoxicity rating (0-100 scale)", "setting": "[17]; 250 g ai/ha", "result": 80}, {"measurement": "SETVI phytotoxicity rating (0-100 scale)", "setting": "[18]; 125 g ai/ha", "result": 99}, {"measurement": "SETVI phytotoxicity rating (0-100 scale)", "setting": "[18]; 250 g ai/ha", "result": 100}, {"measurement": "ABUTH phytotoxicity rating (0-100 scale)", "setting": "[19]; 125 g ai/ha", "result": 95}, {"measurement": "ABUTH phytotoxicity rating (0-100 scale)", "setting": "[19]; 250 g ai/ha", "result": 100}, {"measurement": "AMARE phytotoxicity rating (0-100 scale)", "setting": "[20]; 125 g ai/ha", "result": 100}, {"measurement": "AMARE phytotoxicity rating (0-100 scale)", "setting": "[20]; 250 g ai/ha", "result": 100}, {"measurement": "CASOB phytotoxicity rating (0-100 scale)", "setting": "[21]; 125 g ai/ha", "result": 50}, {"measurement": "CASOB phytotoxicity rating (0-100 scale)", "setting": "[21]; 250 g ai/ha", "result": 70}, {"measurement": "IPOHE phytotoxicity rating (0-100 scale)", "setting": "[22]; 125 g ai/ha", "result": 75}, {"measurement": "IPOHE phytotoxicity rating (0-100 scale)", "setting": "[22]; 250 g ai/ha", "result": 80}, {"measurement": "SORHA phytotoxicity rating (0-100 scale)", "setting": "[23]; 125 g ai/ha", "result": 40}, {"measurement": "SORHA phytotoxicity rating (0-100 scale)", "setting": "[23]; 250 g ai/ha", "result": 60}, {"measurement": "CHEAL phytotoxicity rating (0-100 scale)", "setting": "[24]; 125 g ai/ha", "result": 100}, {"measurement": "CHEAL phytotoxicity rating (0-100 scale)", "setting": "[24]; 250 g ai/ha", "result": 100}, {"measurement": "RICE crop damage, phytotoxicity rating (0-100 scale)", "setting": "[25]; 125 g ai/ha", "result": 0}, {"measurement": "RICE crop damage, phytotoxicity rating (0-100 scale)", "setting": "[25]; 250 g ai/ha", "result": 25}, {"measurement": "SOY crop damage, phytotoxicity rating (0-100 scale)", "setting": "[26]; 125 g ai/ha", "result": 10}, {"measurement": "SOY crop damage, phytotoxicity rating (0-100 scale)", "setting": "[26]; 250 g ai/ha", "result": 15}]}
